In patent US12268676B2, “Antiviral applications of picolinic acid and its derivatives” (INDIAN INSTITUTE OF SCIENCE, priority 2021, dated 2025):
Where two headings read alike, the source gives them in different places.

What was measured:
SARS-CoV-2 [1] = experiment: SARS CoV-2 time of addition assay (IFA for spike, western blot); format: cell-based; conditions: for virus replication mitigated (spike positive cells, IFA): 10 MOI
[2] = tested on: Influenza virus (NS1 Luc); experiment: microbe, parasite or virus in culture; format: cell-based, Influenza A virus; conditions: unidentified influenza virus, A549, read-out: inhibition of virus (luminescence, percentage of untreated virus control)
[3] = tested on: R18 labelled PR8 WT virus; experiment: Influenza virus membrane fusion assay (R18 fluorescence); format: cell-based, Influenza A virus
PR8 WT virus [4] = format: in vivo, BALB/c mice; conditions: for reduction of infectious virus titer in lung homogenates (plaque assay): 20 mg/kg PA prophylactically
[5] = tested on: wild type Zika virus (ZIKV) Cambodia strain; experiment: ZIKV infection, western blot of flavivirus envelope protein; format: cell-based; conditions: 2 mM PA, 0.1 MOI, 48 hr post infection (FIG. 7L)
AAV6-GFP particles = experiment: AAV6-GFP infection of HEK cells, flow cytometry; format: cell-based, Adeno Associated Virus-6; conditions: 2 mM PA, all virus volumes tested, 48 hr p.i.
IAV PR8 WT strain = format: in vivo, BALB/c mice
PR8 WT virus [6] = experiment: IAV time of addition assay (IFA for NP, western blot), Example 10; format: cell-based, Influenza A virus; conditions: for inhibition at 2000 µM: Influenza A virus
Zika Luc = experiment: microbe, parasite or virus in culture; format: cell-based; conditions: A549, 48 h, read-out: inhibition (luciferase, normalized with untreated control)
[7] = tested on: Tf647 labelled endocytic vesicles; experiment: Localization of transferrin labelled vesicles, confocal microscopy; format: cell-based; conditions: VeroE6, 2 mM PA, 100 MOI PR8 WT virus
Experimental: Localization of transferrin labelled vesicles: Vero cells were seeded on glass coverslips in a 12 well dish to reach 70-80% confluency next day. After 3 hr treatment/not with 2 mM PA, cells were washed once with ice cold PBS and the plate was placed on ice for 10 min before incubating with OptiMEM containing PR8 wild type virus (100 MOI) and 25 μg/mL Transferrin 647 (Tf-647) for 1 hr on ice. Cells were washed twice with PBS and the plate moved to 37° C. After a 15 min chase, cells were fixed with 4% PFA, labelled with anti influenza virus HA antibody (PY102) followed by anti-mouse Alexa 488 secondary antibody to label the virus particles. Nuclei were labelled using 0.1 μg/mL DAPI. Images were acquired using a Zeiss LSM-880 Multiphoton microscope.
The dispersion of transferrin labelled vesicles from perinuclear region to cell periphery was quantified by drawing region of interests (ROIs) up to 20 μm away from the nuclei. The fluorescence intensity of Tf-647 labelled vesicles was then measured along this distance using ImageJ/Fiji.

[8] = tested on: clathrin mediated endocytosis; experiment: Transferrin uptake assay, flow cytometry; conditions: A549, 2 mM PA, 1 hr pulse with 25 μg/mL Tf647
Rota virus RRV strain = experiment: Rotavirus RRV infection of HEK cells, IFA for VP6; format: cell-based; conditions: HEK cells pre-treated with 2 mM PA, 12 hr
Experimental: Percentage positive cells was quantified using ImageJ/Fiji.
Rotavirus RRV infection: A working concentration of Rota virus was prepared by diluting the virus stock 2-fold with complete DMEM containing a final concentration of 2 μg/mL TPCK trypsin. The mixture was incubated at 37° C. for 30 min and further diluted 2-fold in DMEM without serum. This mixture was then used to infect HEK cells that were pre-treated for 3 hr with 2 mM PA. A volume of 100 μL per well, in a 24 well plate was used for 1 hr adsorption, after which the wells were topped up with 400 μL serum free media containing PA. After 12 hr, cells were fixed with 4% formalin and immunolabeled with primary mouse anti VP6, and anti-mouse secondary Alexa Fluor 488 antibodies to detect virus infected cells by IFA.

SARS-CoV-2 [9] = experiment: SARS CoV-2 infection studies in the hamster model; format: in vivo, Syrian golden hamsters; conditions: for viral RNA load mitigated by: 20 mg/kg PA therapeutic treatment
[10] = tested on: pseudotyped SARS CoV-2 particles; experiment: microbe, parasite or virus in culture; format: cell-based
[11] = tested on: Influenza A viruses (IAVs); experiment: microbe, parasite or virus in culture; format: cell-based, Influenza A virus
[12] = tested on: Para Influenza virus (HPIV Luc); experiment: microbe, parasite or virus in culture; format: cell-based, Human parainfluenza virus; conditions: unidentified influenza virus
[13] = tested on: Herpes Simplex virus 1 (HSV1 Luc); experiment: microbe, parasite or virus in culture; format: cell-based; conditions: Human alphaherpesvirus 1, A549, 48 h, read-out: inhibition in reporter virus assay
Dengue virus (DENV Luc) = experiment: microbe, parasite or virus in culture; format: cell-based; conditions: A549, 48 h, read-out: inhibition (luciferase, normalized with untreated control)
[14] = tested on: SARS-CoV-2 (isolate hCoV-19/Hong Kong/VM20001061/2020); experiment: SARS-CoV-2 multi-cycle infection, viral RNA by qRT-PCR; format: cell-based; conditions: for decrease in total viral RNA copy numbers: 0.01 MOI, 48 hr (FIG. 6)

O=C(O)c1ccccn1 [PA, pyridine-2-carboxylic acid]
inhibition of virus (IFA, western blot) (SARS-CoV-2 [1]; HEK ACE2, PA added 6 hr post infection, collected 3 hr later): ~50% | inhibition of virus (IFA, western blot) (SARS-CoV-2 [1]; HEK ACE2, no pre-treatment, infected in presence of drug (T0)): almost no inhibition | virus replication mitigated (spike positive cells, IFA) (SARS-CoV-2 [1]; HEK ACE2, pre-treated 3 hr with 2 mM PA (-3 hr)): > 80% | inhibition of virus (IFA, western blot) (SARS-CoV-2 [1]; VeroE6, PA added 6 hr post infection, collected 3 hr later): no inhibition | inhibition of virus (IFA, western blot) (SARS-CoV-2 [1]; VeroE6, no pre-treatment, infected in presence of drug (T0)): almost no inhibition | virus replication mitigated (spike positive cells, IFA) (SARS-CoV-2 [1]; VeroE6, pre-treated 3 hr with 2 mM PA (-3 hr)): > 80% | inhibition at 2000 µM [2]: 70 to 80% | virus-entry associated increase in fluorescence intensity [3]: able to inhibit | reduction of infectious virus titer in lung homogenates (plaque assay) (PR8 WT virus [4]; IP route): > 10 fold | reduction of infectious virus titer in lung homogenates (plaque assay) (PR8 WT virus [4]; oral route): > 10 fold | survival (PR8 WT virus [4]; IP prophylactic group, 7 days p.i.): 80% | bodyweight rescue compared to virus control (PR8 WT virus [4]; IP prophylactic group, day 7): > 10% | rescue of total animal body weight (PR8 WT virus [4]; all groups): Over 90% | abrogation of lung virus titers, IP vs oral route (PR8 WT virus [4]; mouse, in vivo): more effective | clinical scores of histology sections (PR8 WT virus [4]; mouse, in vivo): recovery | lung histology analysis (PR8 WT virus [4]; mouse, in vivo): marked reduction in pathology | animal survival (PR8 WT virus [4]; mouse, in vivo, ip): completely rescue | lung histology analysis (PR8 WT virus [4]; mouse, in vivo, po): best rescue | flavivirus envelope protein by western blot [5]: inhibition | decrease in GFP positive cells (AAV6-GFP particles): 5-10% | decrease in virus titre from lung tissue (plaque assay) compared to untreated (IAV PR8 WT strain; 20 mg PA, 72 hr post infection): Over 10 fold | body weight loss after IAV infection (IAV PR8 WT strain; animals infected in the presence of 100 mg PA): 30% | body weight loss after IAV infection (IAV PR8 WT strain; mouse, in vivo): minimal loss in body weight | decrease in survival rate (IAV PR8 WT strain; mouse, in vivo): significantly reduced | NP positive cells (IFA) (PR8 WT virus [6]): No differences | inhibition at 2000 µM (PR8 WT virus [6]; PR8, 1 h, read-out: inhibition (IFA for nucleoprotein and western blot)): 50% | inhibition at 2000 µM (PR8 WT virus [6]; PR8, A549, 3 h, read-out: inhibition (IFA, NP)): 80% | inhibition at 2000 µM (Zika Luc): > 90% | distance of Tf647 labelled endocytic vesicles from the nuclei [7]: 15-20 microns | cellular uptake of transferrin (Tf647 positive cells) [8]: did not show any differences | effect on virus entry (VP6 positive cells, IFA) (Rota virus RRV strain): did not have any effects | reduction in lung viral load (SARS-CoV-2 [9]; 20 mg/kg PA prophylactically by IP injection): ~2.5 fold | decrease in lung viral load (SARS-CoV-2 [9]; 20 mg/kg PA prophylactically, delivered orally): 1 log | viral RNA load mitigated by (SARS-CoV-2 [9]; IP route): ~1 log | viral RNA load mitigated by (SARS-CoV-2 [9]; oral route): ~1 log | body weight and lung weight compared to mock treated animals (SARS-CoV-2 [9]; 20 mg/kg PA, prophylactic and therapeutic groups): body weight as well as corresponding lung weight rescue | gross lung pathology and inflammation (images of whole lungs) (SARS-CoV-2 [9]; PA treated groups vs mock treated): much of the pathology reduced | histopathology analysis and scoring of lung sections (SARS-CoV-2 [9]; PA treatment groups): decreased pathology | more effective than CM [10]: ~10% | inhibition at 2000 µM ([10]; Severe acute respiratory syndrome coronavirus 2, 60 h, read-out: inhibition of SARS-CoV-2 spike pseudotyped particles (firefly luciferase normalized to virus control)): 90% | inhibition at 2000 µM ([10]; Severe acute respiratory syndrome coronavirus 2, read-out: inhibition of pseudotyped SARS CoV-2 virus entry): > 50% | reduction in virus titer [11]: 3 fold | inhibition at 2000 µM ([11]; Influenza A virus, PR8, MDCK2, 48 h, read-out: maximum inhibition of infectious virus (plaque assay)): 50% | inhibition at 2000 µM ([12]; A549, 48 h, read-out: inhibition in reporter virus assay): 80 to 90% | inhibition at 2000 µM ([12]; A549, read-out: inhibition of virus (luminescence, percentage of untreated virus control)): 70 to 80% | inhibition at 2000 µM [13]: 80 to 90% | inhibition at 2000 µM (Dengue virus (DENV Luc)): > 90% | decrease in total viral RNA copy numbers ([14]; Calu3, 2 mM PA): ~1 log10 | reduction in viral load ([14]; Calu3, 2 mM PA, 0.1 MOI, 48 hr (FIG. 7E)): 2 log | decrease in total viral RNA copy numbers ([14]; HEK ACE2, 2 mM PA): three | decrease in total viral RNA copy numbers ([14]; VeroE6, 2 mM PA): three
